Source: US20190083455A1, “METHODS AND COMPOSITIONS FOR THE MODULATION OF BETA-ENDORPHIN LEVELS” (The General Hospital Corporation, priority 2014, published 2019)

Tests used:
mice = assay: Conditioned place preference testing with i.v. β-endorphin; assay type: in vivo; settings: i.v. tail vein
From the text: To test whether it is plausible that skin-derived β-endorphin may cause central effects we decided to assess whether peripherally administered β-endorphin injected i.v. into the tail vein could cause conditioned place preference.

[1] = tested on: B16, B16-F0, Melan-a and PAM212 mouse cell lines; assay: RT-qPCR of POMC and Mitf after forskolin treatment, mouse cell lines; assay type: cell-based; settings: 20 μM forskolin; mouse cells
Protocol: (§1) UACC62 and UAC257 human melanoma cells were obtained from NCI and grown in RPMI (Cellgro) medium supplemented with 10% fetal bovine serum and penicillin/streptomycin/L-glutamine. Malme-3M human melanoma and B16 mouse melanoma cell line were obtained from ATCC and grown in DEMEM (Cellgro) medium supplemented with 5% fetal bovine serum and 1% penicillin/streptomycin/L-glutamine. Melan-a cells were kindly provided by Dorothy C. Bennett and were grown in Ham's F10 medium supplemented with 10% fetal bovine serum and 1% penicillin/streptomycin/L-glutamine. The mouse keratinocyte cell line PAM212 was generously shared by Dr. Paolo Dotto (Massachusetts General Hospital and Harvard Medical School, Boston, Mass.) and grown in 10% fetal bovine serum and 1% penicillin/streptomycin/L-glutamine. Cells were grown to 70% confluence prior to use in experiments in humidified incubators supplemented with 5% CO2.
(§2) After forskolin (Sigma) treatment at 20 μM final concentration at the stated times, mRNA was isolated using RNeasy® plus minikits from Qiagen, and was subjected to KAPA SYBR® FAST One-Step qRT-PCR (Kapa Biosystems). For each reaction, 100 ng of RNA was subjected to the following steps: reverse transcription for 30 min at 48° C., inactivation for 10 min at 95° C., expansion for 40 cycles (15 sec at 95° C. and 30 sec at 60° C.). The results are the average of three independent experiments. […]

[2] = tested on: Malme-3M, UAC257 and UACC62 human melanoma cell lines; assay: RT-qPCR of POMC after forskolin treatment, human melanoma cell lines; assay type: cell-based; settings: 20 μM forskolin; human samples
Protocol: as §1, §2

β-endorphin = assay: Plasma β-endorphin after topical forskolin treatment; assay type: in vivo; settings: male mice, non-K14-SCF vs K14-SCF/Mc1r^e/e
Protocol: Blood samples from mice were collected in EDTA microvotte tubes containing 0.6 UTI aprotinin (Sigma). Samples were spun at 3500 rpm at 4° C. for 20 min and the plasma (top layer) was isolated and transferred to a new tube and stored at −80° C. until β-endorphin measurement was performed. β-Endorphin was measured using a radioimmunoassay from Phoenix Pharmaceuticals, following the manufacturer's instructions.
All experiments were done in C57BL/6J (Jackson laboratory) mice. C57BL/6J Mc1r^e/e (described at Robbins L S, et al., Pigmentation phenotypes of variant extension locus alleles result from point mutations that alter MSH receptor function. Cell. 1993 Mar. 26; 72(6) 72, 827-834.) were crossed with K14-Scf transgenic mice as previously reported (Kunisada T, et. al., Development. 1998 August; 125(15):2915-23.). Mice were 8 weeks old at the start of each experiment.
A crude extract of Coleus forskohlii root preparation was used as a working source of forskolin (ATZ Natural, Edgewater, N.J.) for the topical treatment of this drug (Lin C B, et. al., Modulation of microphthalmia-associated transcription factor gene expression alters skin pigmentation. J Invest Dermatol 119, 1330-1340 (2002)). […] Samples were processed and β-endorphin was measured.

Molecule	conditioned place preference (time spent in the white box) (mice)	time of peak Mitf mRNA expression after treatment [1]	time of peak POMC mRNA expression after treatment [1]	time point of increase of POMC after treatment [2]	β-endorphin fold induction, comparison of genotypes (β-endorphin)
β-endorphin (YGGFMTSEKSQTPLVTLFKNAIIKNAYKKGE; Beta-endorphin; UniProt P01189 237-267, looked up) [endogenous opioid peptide, administered i.v. through the tail vein]	spent more time in the white box after conditioning				
C=C[C@@]1(C)CC(=O)[C@]2(O)[C@@]3(C)[C@@H](O)CCC(C)(C)[C@@H]3[C@H](O)[C@H](OC(C)=O)[C@@]2(C)O1 [forskolin]		2 h	8 h	2 to 4 h	higher fold induction in the non-K14-SCF mice compared to the K14-SCF/Mc1r^e/e
